Measured values published in article PMC9705338, “The phycoerythrobilin isomerization activity of MpeV in Synechococcus sp. WH8020 is prevented by the presence of a histidine at position 141 within its phycoerythrin-I β-subunit substrate” (Frontiers in Microbiology, 2022).

Target: T1, WHMpeV (MpeV from WH8020) (Synechococcus sp. WH 8020, UniProt Q02178)
T1 construct: His-tagged, in pCDF-Duet, co-expressed in E. coli with RS9916 cpeS, cpeZ, ho1/pebS and a PE beta-subunit
T1 sequence (Q02178 1-301): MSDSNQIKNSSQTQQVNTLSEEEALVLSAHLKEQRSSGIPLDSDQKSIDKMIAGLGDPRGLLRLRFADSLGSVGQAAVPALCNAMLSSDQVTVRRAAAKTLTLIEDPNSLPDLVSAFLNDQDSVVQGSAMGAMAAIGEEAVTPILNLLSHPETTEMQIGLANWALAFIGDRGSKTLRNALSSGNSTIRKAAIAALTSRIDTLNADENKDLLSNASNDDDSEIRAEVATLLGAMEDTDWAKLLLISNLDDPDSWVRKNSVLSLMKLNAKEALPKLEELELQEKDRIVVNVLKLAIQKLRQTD
Test: co-expression in E. coli; absorbance, zinc fluorescence, LC-MS-MS of the product subunit
Format: cell-based

SMILES: C=CC1=C(C)C(CC2=NC(=Cc3[nH]c(C=C4NC(=O)C(C)C4=CC)c(C)c3CCC(=O)O)C(CCC(=O)O)=C2C)NC1=O (centres unmarked) [phycoerythrobilin]
- co-expression in E. coli; absorbance, zinc fluorescence, LC-MS-MS of the product (bilin acceptor WHCpeB (ligation without isomerization), RSCpeB or WHMpeB (ligation with isomerization), with RSCpeZ and RSCpeS): WHMpeV acts as a PEB lyase-isomerase, doubly ligating PUB on RSCpeB

SMILES: C=CC1=C(C)[C@@H](CC2=N/C(=C\c3[nH]c(C[C@H]4NC(=O)C(C)=C4C=C)c(C)c3CCC(=O)O)C(CCC(=O)O)=C2C)NC1=O [phycourobilin]
- co-expression in E. coli; absorbance, zinc fluorescence, LC-MS-MS of the product (covalent, protein-bound product on RSCpeB, WHMpeB and WHCpeB H141L): WHMpeV is capable of isomerizing activity on both WHMpeB and RSCpeB
